Patent US6355799B1, “Substituted benzene compounds, process for their preparation, and herbicidal and defoliant compositions containing them” (ISK Americas Incorporated, priority 1997, dated 2002)

Columns and labels:
Assay type in all cases: in vivo
[1] = tested on: green foxtail (Setaria viridis, SETVI); assay: Pre-emerge test, greenhouse herbicide activity screening; conditions: rating scale 0-100, 14 days after application
Method in brief: (§1)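 Compounds in acetone were track-sprayed at 15–1000 g ai/ha: pre-emergence onto soil sown the previous day, then top-watered to incorporate and later bottom-watered; post-emergence onto 2–3 leaf plants with 0.25% v/v surfactant, bottom-watered only. Ratings on a 0–100 phytotoxicity scale were taken at day 14.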

[2] = tested on: ivyleaf morningglory (Ipomoea hederacea, IPOHE); assay: as above; conditions: rating scale 0-100, 14 days after application
Method in brief: as §1

[3] = tested on: johnsongrass (Sorghum halepense, SORHA); assay: as above; conditions: rating scale 0-100, 14 days after application
Method in brief: as §1

[4] = tested on: barnyardgrass (Echinochloa crus-galli, ECHCG); assay: as above; conditions: rating scale 0-100, 14 days after application
Method in brief: as §1

[5] = tested on: velvetleaf (Abutilon theophrasti, ABUTH); assay: as above; conditions: rating scale 0-100, 14 days after application
Method in brief: as §1

[6] = tested on: lambsquarters (Chenopodium album, CHEAL); assay: as above; conditions: rating scale 0-100, 14 days after application
Method in brief: as §1

[7] = tested on: large crabgrass (Digitaria sanguinalis, DIGSA); assay: as above; conditions: rating scale 0-100, 14 days after application
Method in brief: as §1

[8] = tested on: sicklepod (Cassia obtusifolia, CASOB); assay: as above; conditions: rating scale 0-100, 14 days after application
Method in brief: as §1

[9] = tested on: field corn (Zea mays L., var. Dekalb 535, CORN); assay: Pre-emerge test, crop safety; conditions: rating scale 0-100, 14 days after application
Method in brief: (§2)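 Fourteen days after spraying, crop and weed injury was graded visually from 0, no effect, to 100, every plant dead. Test substances were dissolved in acetone and applied at 15–1000 g ai/ha with a flat-fan nozzle. Application was either pre-emergence, one day after sowing, or post-emergence at the 2–3 leaf stage.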

[10] = tested on: upland rice (Oryza sp., var. Tebonnet, RICE); assay: Pre-emerge test, crop safety; conditions: rating scale 0-100, 14 days after application
Method in brief: as §2

[11] = tested on: field corn (Zea mays L., var. Dekalb 535, CORN); assay: Post-emerge test, crop safety; conditions: rating scale 0-100 (0 no damage, 100 complete death), 14 days after application
Method in brief: (§3)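 Rating: 0–100 visual injury, 14 DAA. Application: acetone, 187 l/ha, 15–1000 g ai/ha, flat-fan track sprayer with nozzle 40–45 cm above soil or canopy. Post-emerge runs used 0.25% v/v surfactant on 2–3 leaf plants.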

[12] = tested on: upland rice (Oryza sp., var. Tebonnet, RICE); assay: Post-emerge test, crop safety; conditions: rating scale 0-100 (0 no damage, 100 complete death), 14 days after application
Method in brief: as §3

[13] = tested on: redroot pigweed (Amaranthus retroflexus, AMARE); assay: Pre-emerge test, greenhouse herbicide activity screening; conditions: rating scale 0-100, 14 days after application
Method in brief: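 Herbicidal damage is scored 0 (none) to 100 (complete plant death) two weeks after a simulated field spray. Rates span 15–1000 g ai/ha, delivered in acetone at 187 l/ha. For post-emergence treatments, plants have 2–3 leaves and the spray carries 0.25% v/v non-ionic surfactant.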

[14] = tested on: redroot pigweed (Amaranthus retroflexus, AMARE); assay: Post-emerge test, greenhouse herbicide activity screening; conditions: rating scale 0-100 (0 no damage, 100 complete death), 14 days after application
Method in brief: (§4)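 Applied at 15–1000 g ai/ha from acetone in 187 l/ha spray volume. Post-emergence applications included 0.25% v/v non-ionic surfactant and reached plants sown 8–21 days before. Pre-emergence applications were incorporated by surface watering. Efficacy or crop damage was rated on a 0–100 scale after 14 days.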

[15] = tested on: green foxtail (Setaria viridis, SETVI); assay: as above; conditions: rating scale 0-100 (0 no damage, 100 complete death), 14 days after application
Method in brief: as §4

[16] = tested on: ivyleaf morningglory (Ipomoea hederacea, IPOHE); assay: as above; conditions: rating scale 0-100 (0 no damage, 100 complete death), 14 days after application
Method in brief: as §4

[17] = tested on: johnsongrass (Sorghum halepense, SORHA); assay: as above; conditions: rating scale 0-100 (0 no damage, 100 complete death), 14 days after application
Method in brief: as §4

[18] = tested on: barnyardgrass (Echinochloa crus-galli, ECHCG); assay: as above; conditions: rating scale 0-100 (0 no damage, 100 complete death), 14 days after application
Method in brief: as §4

[19] = tested on: velvetleaf (Abutilon theophrasti, ABUTH); assay: as above; conditions: rating scale 0-100 (0 no damage, 100 complete death), 14 days after application
Method in brief: as §4

[20] = tested on: lambsquarters (Chenopodium album, CHEAL); assay: as above; conditions: rating scale 0-100 (0 no damage, 100 complete death), 14 days after application
Method in brief: as §4

[21] = tested on: large crabgrass (Digitaria sanguinalis, DIGSA); assay: as above; conditions: rating scale 0-100 (0 no damage, 100 complete death), 14 days after application
Method in brief: as §4

[22] = tested on: sicklepod (Cassia obtusifolia, CASOB); assay: as above; conditions: rating scale 0-100 (0 no damage, 100 complete death), 14 days after application
Method in brief: as §4

Question: What does the source list for `COc1c(Cl)cc(F)c(-n2c(=O)cc(C(F)(F)F)n(C)c2=O)c1CC(Cl)C(=O)OCCC(C)C` (single isomer, unassigned) [14-16]?
Answer: Pre-emerge herbicidal activity, phytotoxicity rating SETVI ([1]; 63 g ai/ha): 0; Pre-emerge herbicidal activity, phytotoxicity rating SETVI ([1]; 250 g ai/ha): 0; Pre-emerge herbicidal activity, phytotoxicity rating IPOHE ([2]; 63 g ai/ha): 0; Pre-emerge herbicidal activity, phytotoxicity rating IPOHE ([2]; 250 g ai/ha): 0; Pre-emerge herbicidal activity, phytotoxicity rating SORHA ([3]; 63 g ai/ha): 0; Pre-emerge herbicidal activity, phytotoxicity rating SORHA ([3]; 250 g ai/ha): 0; Pre-emerge herbicidal activity, phytotoxicity rating ECHCG ([4]; 63 g ai/ha): 0; Pre-emerge herbicidal activity, phytotoxicity rating ECHCG ([4]; 250 g ai/ha): 0; Pre-emerge herbicidal activity, phytotoxicity rating ABUTH ([5]; 63 g ai/ha): 0; Pre-emerge herbicidal activity, phytotoxicity rating ABUTH ([5]; 250 g ai/ha): 90; Pre-emerge herbicidal activity, phytotoxicity rating CHEAL ([6]; 63 g ai/ha): 100; Pre-emerge herbicidal activity, phytotoxicity rating CHEAL ([6]; 250 g ai/ha): 100; Pre-emerge herbicidal activity, phytotoxicity rating DIGSA ([7]; 63 g ai/ha): 50; Pre-emerge herbicidal activity, phytotoxicity rating DIGSA ([7]; 250 g ai/ha): 100; Pre-emerge herbicidal activity, phytotoxicity rating CASOB ([8]; 63 g ai/ha): 0; Pre-emerge herbicidal activity, phytotoxicity rating CASOB ([8]; 250 g ai/ha): 0; Pre-emerge phytotoxicity rating, crop damage CORN ([9]; 63 g ai/ha): 0; Pre-emerge phytotoxicity rating, crop damage CORN ([9]; 250 g ai/ha): 0; Pre-emerge phytotoxicity rating, crop damage RICE ([10]; 63 g ai/ha): 0; Pre-emerge phytotoxicity rating, crop damage RICE ([10]; 250 g ai/ha): 0; Post-emerge phytotoxicity rating CORN (crop damage) ([11]; Rate 63 g ai/ha): 0; Post-emerge phytotoxicity rating CORN (crop damage) ([11]; Rate 250 g ai/ha): 70; Post-emerge phytotoxicity rating RICE (crop damage) ([12]; Rate 63 g ai/ha): 0; Post-emerge phytotoxicity rating RICE (crop damage) ([12]; Rate 250 g ai/ha): 10; Pre-emerge herbicidal activity, phytotoxicity rating AMARE ([13]; 63 g ai/ha): 100; Pre-emerge herbicidal activity, phytotoxicity rating AMARE ([13]; 250 g ai/ha): 100; Post-emerge Herbicidal Activity, phytotoxicity rating AMARE ([14]; Rate 63 g ai/ha): 60; Post-emerge Herbicidal Activity, phytotoxicity rating AMARE ([14]; Rate 250 g ai/ha): 100; Post-emerge Herbicidal Activity, phytotoxicity rating SETVI ([15]; Rate 63 g ai/ha): 0; Post-emerge Herbicidal Activity, phytotoxicity rating SETVI ([15]; Rate 250 g ai/ha): 30; Post-emerge Herbicidal Activity, phytotoxicity rating IPOHE ([16]; Rate 63 g ai/ha): 40; Post-emerge Herbicidal Activity, phytotoxicity rating IPOHE ([16]; Rate 250 g ai/ha): 50; Post-emerge Herbicidal Activity, phytotoxicity rating SORHA ([17]; Rate 63 g ai/ha): 0; Post-emerge Herbicidal Activity, phytotoxicity rating SORHA ([17]; Rate 250 g ai/ha): 30; Post-emerge Herbicidal Activity, phytotoxicity rating ECHCG ([18]; Rate 63 g ai/ha): 95; Post-emerge Herbicidal Activity, phytotoxicity rating ECHCG ([18]; Rate 250 g ai/ha): 100; Post-emerge Herbicidal Activity, phytotoxicity rating ABUTH ([19]; Rate 63 g ai/ha): 60; Post-emerge Herbicidal Activity, phytotoxicity rating ABUTH ([19]; Rate 250 g ai/ha): 100; Post-emerge Herbicidal Activity, phytotoxicity rating CHEAL ([20]; Rate 63 g ai/ha): 95; Post-emerge Herbicidal Activity, phytotoxicity rating CHEAL ([20]; Rate 250 g ai/ha): 100; Post-emerge Herbicidal Activity, phytotoxicity rating DIGSA ([21]; Rate 63 g ai/ha): 90; Post-emerge Herbicidal Activity, phytotoxicity rating DIGSA ([21]; Rate 250 g ai/ha): 100; Post-emerge Herbicidal Activity, phytotoxicity rating CASOB ([22]; Rate 63 g ai/ha): 20; Post-emerge Herbicidal Activity, phytotoxicity rating CASOB ([22]; Rate 250 g ai/ha): 40
